{"source": "patent US8414989B2", "about": "“Cyclodextrin compositions, articles, and methods” (Cellresin Technologies, LLC, priority 2011, dated 2013)", "key": {"[1]": {"assay": "Example 1: 1-MCP headspace release from UV-cured isobornyl acrylate coating with 1-MCP/c/α-CD on PET film (GC-FID)", "type": "physicochemical", "settings": "1 cm x 1 cm cured coated square, 250 mL bottle", "description": "A cyclodextrin inclusion complex is formed from α-cyclodextrin and 1-methyl cyclopropene (1-MCP) using the technique described by Neoh, T. L. et al., J. Agric. Food Chem. 2007, 55, 11020-11026 “Kinetics of Molecular Encapsulation of 1-Methylcyclopropene into α-Cyclodextrin.” The inclusion complex is termed “1-MCP/c/α-CD.” A 500 mL bottle is charged with 97.0 g of isobornyl acrylate, 1.0 g of hexanediol diacrylate, 1.0 g of 1-MCP/c/α-CD, and 1.0 g of […] (IRGACURE® 184, obtained from Ciba Specialty Chemicals Corp. of Tarrytown, N.Y.). The bottle is firmly capped and the components are mixed by shaking the bottle briefly by hand.\nAbout 2 mL of the mixture is removed with a metered dropper and dispensed on an 8.5 inch by 11 inch PET film and drawn down using a metering rod (Mayer rod) having a delivered coating thickness of 25 microns. Then the coated PET film is placed on a flat surface approximately 5 cm beneath a medium pressure mercury arc lamp operating at 200 watts per inch (79 watts per cm). After 30 seconds under the lamp, the film is removed. A silicone coated PET sheet (about 50 microns thick) is placed over the cured coating and allowed to sit on a laboratory bench overnight.\nA die cutter is used to cut a 1 cm by 1 cm square of the coated portion of the sheet. […] Headspace concentrations of 1-MCP are measured after 1 hour following introduction of the coated square into bottle. The 1-MCP headspace concentration is quantified using gas chromatography by removing 1 mL of gas from the sample bottle using a gas sampling valve interfaced directly to a GC column having FID detector.\nThen 50 μl of deionized water is injected into the jar. […] The sealed jar is allowed to sit on the lab bench for one hour after the injection of water, then a second headspace sample is analyzed. A final headspace sample is analyzed 24 hours after the injection of water. At 1 hour after injection of the water, 0.5 ppm of 1-MCP is measured in the headspace. After 24 hours, 0.5 ppm of 1-MCP is measured in the headspace."}, "[2]": {"assay": "Example 7: 1-MCP permeation through polyethylene film from PSA label into 1,000 mL headspace", "type": "physicochemical", "settings": "11 cm diameter PSA label on 25 μm PE film, 1,000 mL kettle", "description": "This method is designed to measure the permeability of 1-MCP through polyethylene film into a confined, fixed volume headspace following release from a PSA label adhered to the surface of the film defining the fixed volume. The methodology simulates the headspace of a flexible film package having initially low relative humidity, wherein a PSA label containing 1-MCP is adhered to the outside of the package. As the humidity rises inside the package by respiration of fresh agricultural products, the water vapor increases in concentration and it diffuses through the package film to the outside environment but also into the PSA. Thus, as the water vapor diffuses through the film into the 1-MCP adhesive label adhered to the outside of the package film; 1-MCP released from the label adhesive into the fixed volume (headspace) was measured.\nA coated, cured labelstock sheet made according to the procedure of Example 6 was cut by hand into an 11 cm diameter circle. Next the PET liner was removed from the label and the label was adhered via the PSA to a 13.5 cm diameter, 1 mil (25 μm) thick polyethylene (PE) film (obtained from the Pliant Corporation of Schaumburg, Ill.). The paper side of this structure was then covered with aluminum foil. The foil/paper/PSA/PE layered structure was mounted onto the open end of a 1,000 mL glass reaction kettle bottom (6947-1LBO, from Corning Glass of Corning, N.Y.) and sealed to the kettle's glass flange using aluminum sealing rings. The layered structure was oriented over the 11 cm opening with the PE film facing in and the aluminum facing out. The glass reaction kettle was modified with a silicone septum port to allow sampling of the 1,000 mL headspace. Headspace analysis was conducted by removing 250 μL of headspace volume from the 1,000 mL glass kettle and analyzing according to the technique of Example 3.\nThen 200 μL of water was added through the septum port to the inside of the glass kettle. The headspace was analyzed for 1-MCP at 17, 25 and 90 hours after the injection of water using the technique employed in Example 3. At 17 hours, 25 hours, and 90 hours after injection of the water, the 1-MCP headspace concentration was 3.6 ppm, 7.0 ppm and 8.0 ppm of 1-MCP, respectively."}, "[3]": {"assay": "Example 9: 1-MCP headspace release from UV-cured ink coated on PET film", "type": "physicochemical", "settings": "4 wt-% 1-MCP/c/α-CD UV ink on PET, 200 μL water", "description": "ImTech UVBLK Series 912 cartridges were obtained from ImTech Inc. of Corvallis, Oreg. About 40 g of black ink was removed from the cartridge in which the ink was supplied. The ink was dried overnight in a closed container with 3 A molecular sieves to remove residual water contained in the ink. Then 17.5 g of the dried ink was transferred to a 70 mL roller mill jar filled with 50 g of 3 mm glass beads to which 0.875 g of 1-MCP/c/α-CD was added to the UV ink. The jar was sealed and rotated on a roller mill at 140 rpm for four hours. At the end of four hours of rolling to disperse the 1-MCP/c/α-CD, an additional 4.375 g of dry UV ink was added making a 4 wt-% 1-MCP/c/α-CD containing ink. Then the ink was decanted from the glass beads.\nA rubber ink roller was used to coat a discontinuous, thin (nominally 3 μm), but uniform UV ink coating onto a 10 cm by 20 cm section of PET film (120 microns thick, obtained from the 3M Company of St. Paul, Minn.) in the manner described in Example 2. UV ink coated rectangles were passed by hand about 10 cm beneath a medium pressure mercury arc lamp operating at 79 watts per cm for 1.5 seconds exposure to the lamp. The cured sample was allowed to sit on a laboratory bench overnight ink side down.\nA paper cutter was used to cut two samples, 20 cm^2 and 81 cm^2, from the cured ink coated PET film sheet. The samples were individually placed in 250 mL serum bottles. The bottles were then sealed with TEFLON® faced silicone septa. Then 200 μL of deionized water was injected into the bottle. […] After the injection of water into the bottle, 1-MCP was measured in the headspace using the analytical technique employed in Example 3."}, "[4]": {"settings": "cited from earlier work"}}, "data": [{"smiles": "CC1=CC1", "note": "[1-MCP, 1-methylcyclopropene]", "values": [{"measurement": "Headspace concentration of 1-MCP", "setting": "[1]; 1 hour after injection of 50 μl water", "result": 0.5, "unit": "ppm"}, {"measurement": "Headspace concentration of 1-MCP", "setting": "[1]; 24 hours after injection of 50 μl water", "result": 0.5, "unit": "ppm"}, {"measurement": "Headspace concentration of 1-MCP", "setting": "[1]; no water added, 1 hour", "result": "No measurable concentration"}, {"measurement": "1-MCP headspace concentration", "setting": "[2]; 200 μL water, 17 hours", "result": 3.6, "unit": "ppm"}, {"measurement": "1-MCP headspace concentration", "setting": "[2]; 200 μL water, 25 hours", "result": 7.0, "unit": "ppm"}, {"measurement": "1-MCP headspace concentration", "setting": "[2]; 200 μL water, 90 hours", "result": 8.0, "unit": "ppm"}, {"measurement": "1-MCP headspace concentration", "setting": "[2]; no added water, two hours", "result": "< 0.01", "unit": "ppm"}, {"measurement": "Headspace concentration of 1-MCP", "setting": "[3]; 20 cm^2, 250 mL bottle, 0.5 hours", "result": "<0.01 ppm (v/v)"}, {"measurement": "Headspace concentration of 1-MCP", "setting": "[3]; 20 cm^2, 250 mL bottle, 1 hour", "result": "<0.01 ppm (v/v)"}, {"measurement": "Headspace concentration of 1-MCP", "setting": "[3]; 20 cm^2, 250 mL bottle, 2 hours", "result": "0.01 ppm (v/v)"}, {"measurement": "Headspace concentration of 1-MCP", "setting": "[3]; 20 cm^2, 250 mL bottle, 4 hours", "result": "0.04 ppm (v/v)"}, {"measurement": "Headspace concentration of 1-MCP", "setting": "[3]; 20 cm^2, 250 mL bottle, 8 hours", "result": "0.05 ppm (v/v)"}, {"measurement": "Headspace concentration of 1-MCP", "setting": "[3]; 20 cm^2, 250 mL bottle, 27 hours", "result": "0.09 ppm (v/v)"}, {"measurement": "Headspace concentration of 1-MCP", "setting": "[3]; 20 cm^2, 250 mL bottle, 170 hours", "result": "0.76 ppm (v/v)"}, {"measurement": "Headspace concentration of 1-MCP", "setting": "[3]; 81 cm^2, 250 mL bottle, 0.5 hours", "result": "<0.01 ppm (v/v)"}, {"measurement": "Headspace concentration of 1-MCP", "setting": "[3]; 81 cm^2, 250 mL bottle, 1 hour", "result": "0.05 ppm (v/v)"}, {"measurement": "Headspace concentration of 1-MCP", "setting": "[3]; 81 cm^2, 250 mL bottle, 2 hours", "result": "0.18 ppm (v/v)"}, {"measurement": "Headspace concentration of 1-MCP", "setting": "[3]; 81 cm^2, 250 mL bottle, 21 hours", "result": "0.51 ppm (v/v)"}, {"measurement": "Headspace concentration of 1-MCP", "setting": "[3]; 81 cm^2, 250 mL bottle, 48 hours", "result": "0.60 ppm (v/v)"}, {"measurement": "1-MCP remained complexed", "setting": "[4]; 1-MCP/c/α-CD, end of the experiments", "result": "~83.4", "unit": "%"}, {"measurement": "total complexed 1-MCP dissociated at the end of the experiments, average", "setting": "[4]; 1-MCP/c/α-CD, humidity-triggered dissociation", "result": "~17.6", "unit": "%"}, {"measurement": "complexed 1-MCP released from 1-MCP/c/α-CD", "setting": "[4]; 100% relative humidity", "result": "less than 20%"}]}]}
